# From ChEMBL document CHEMBL1201862, “PubChem BioAssay data set” (2004)
#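 Tested at 5 concentrations; 48 h exposure; 96-well plates; endpoints linearly interpolated, else capped at highest concentration. GI50 = concentration required for 50% inhibition of growth.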 Calls of active or inactive are those of the source. No stated cut-off is given here; in the data, active = GI50 up to about 1.1 µM and inactive = higher.
# Columns and labels:
# Assay in all cases: inhibition of tumour cell growth, NCI panel, 48 h
# SK-OV-3 = test system: SK-OV-3
# OVCAR-4 = test system: OVCAR-4
# HCT-15 = test system: HCT-15
# HL-60 = test system: HL-60
# COLO 205 = test system: COLO 205
# OVCAR-5 = test system: OVCAR-5
# IGROV-1 = test system: IGROV-1
# HOP-92 = test system: HOP-92
# SN12C = test system: SN12C
# KM12 = test system: KM12
# SK-MEL-28 = test system: SK-MEL-28
# K562 = test system: K562
# M14 = test system: M14
# NCI-H226 = test system: NCI-H226
# DMS-273 = test system: DMS-273
# NCI-H23 = test system: NCI-H23
# CCRF-CEM = test system: CCRF-CEM
# SR = test system: SR
# BT-549 = test system: BT-549
# NCI/ADR-RES = test system: NCI/ADR-RES
SMILES,GI50 (SK-OV-3),GI50 (OVCAR-4),GI50 (HCT-15),GI50 (HL-60),GI50 (COLO 205),GI50 (OVCAR-5),GI50 (IGROV-1),GI50 (HOP-92),GI50 (SN12C),GI50 (KM12),GI50 (SK-MEL-28),GI50 (K562),GI50 (M14),GI50 (NCI-H226),GI50 (DMS-273),GI50 (NCI-H23),GI50 (CCRF-CEM),GI50 (SR),GI50 (BT-549),GI50 (NCI/ADR-RES)
Cc1cccc(C2=C/C(=C(\SS/C(C(=O)c3ccc(OCC(=O)O)c(Cl)c3Cl)=C3\C=C(c4cccc(C)c4)SS3)C(=O)c3ccc(OCC(=O)O)c(Cl)c3Cl)SS2)c1,36.6 µM (inactive),17.2 µM (inactive),12 µM,1.85 µM (inactive),7.94 µM (inactive),30.4 µM (inactive),12.1 µM (inactive),5.45 µM (inactive),14.8 µM (inactive),23.3 µM (inactive),18.6 µM (inactive),4.31 µM (inactive),22.1 µM (inactive),12.1 µM (inactive),31.3 µM (inactive),12.1 µM (inactive),4.71 µM (inactive),,,
O=C(Nc1cccc(Cl)c1)c1cc2cc(/N=N/c3ccc(Br)cc3)ccc2oc1=O,51.2 µM (inactive),27.7 µM (inactive),10.2 µM,,41.4 µM (inactive),31 µM (inactive),51.5 µM (inactive),37.8 µM (inactive),32.1 µM (inactive),19.2 µM (inactive),47.8 µM (inactive),6.19 µM (inactive),22.3 µM (inactive),,21.3 µM (inactive),22.6 µM (inactive),,,,
C[Si]12OCCCN(CCO1)CCO2,> 100 µM (inactive),,,,> 100 µM (inactive),> 100 µM (inactive),> 100 µM (inactive),> 100 µM (inactive),> 100 µM (inactive),> 100 µM (inactive),> 100 µM (inactive),> 100 µM (inactive),,,> 100 µM (inactive),> 100 µM (inactive),> 100 µM (inactive),> 100 µM (inactive),,
Cc1ccc(NC(=O)CC(=O)n2nc(-c3ccccc3)c(/N=N/c3ccc(Cl)cc3)c2-c2ccccc2)cc1,27.5 µM (inactive),23.3 µM (inactive),88.7 µM,0.221 µM (active),35 µM (inactive),> 100 µM (inactive),57.7 µM (inactive),39.7 µM (inactive),31.6 µM (inactive),36.5 µM (inactive),> 100 µM (inactive),13.5 µM (inactive),> 100 µM (inactive),> 100 µM (inactive),83.8 µM (inactive),58.1 µM (inactive),24.4 µM (inactive),,,
Cn1cnc([N+](=O)[O-])c1Sc1nnnn1-c1ccccc1,46.9 µM (inactive),10.4 µM (inactive),,,8.09 µM (inactive),17.8 µM (inactive),16.2 µM (inactive),2.72 µM (inactive),15.7 µM (inactive),17.4 µM (inactive),14.4 µM (inactive),3.94 µM (inactive),10.9 µM (inactive),17.3 µM (inactive),15 µM (inactive),19.4 µM (inactive),2.39 µM (inactive),,,
CC(=O)N1C(=O)C(=O)c2cc(Cl)ccc21,> 100 µM (inactive),> 100 µM (inactive),> 100 µM,> 100 µM (inactive),> 100 µM (inactive),> 100 µM (inactive),> 100 µM (inactive),,> 100 µM (inactive),> 100 µM (inactive),> 100 µM (inactive),> 100 µM (inactive),> 100 µM (inactive),> 100 µM (inactive),> 100 µM (inactive),> 100 µM (inactive),> 10 µM (inactive),> 100 µM (inactive),,
Cc1c(C(=O)C/C(=N/NC(=O)C[n+]2ccccc2)C(=O)Nc2ccccc2)[n+]([O-])c2ccccc2[n+]1[O-],> 100 µM (inactive),> 100 µM (inactive),> 100 µM,> 100 µM (inactive),> 100 µM (inactive),> 100 µM (inactive),> 100 µM (inactive),,> 100 µM (inactive),> 100 µM (inactive),> 100 µM (inactive),> 100 µM (inactive),> 100 µM (inactive),> 100 µM (inactive),> 100 µM (inactive),> 100 µM (inactive),> 100 µM (inactive),87.5 µM (inactive),,
C[C@@H](CO)OCOCc1ccccc1,> 100 µM (inactive),> 100 µM (inactive),> 100 µM,> 100 µM (inactive),> 100 µM (inactive),,> 100 µM (inactive),> 100 µM (inactive),> 100 µM (inactive),> 100 µM (inactive),> 100 µM (inactive),> 100 µM (inactive),> 100 µM (inactive),,> 100 µM (inactive),> 100 µM (inactive),> 100 µM (inactive),,,
CSCC(COC(C)=O)(CSC)c1ccncc1,> 100 µM (inactive),> 100 µM (inactive),> 100 µM,> 100 µM (inactive),> 100 µM (inactive),,> 100 µM (inactive),,> 100 µM (inactive),> 100 µM (inactive),> 100 µM (inactive),> 100 µM (inactive),> 100 µM (inactive),,> 100 µM (inactive),> 100 µM (inactive),> 100 µM (inactive),> 100 µM (inactive),,
COC(=O)C(=O)C(C(=O)C(=O)Nc1ccc([N+](=O)[O-])cc1)c1nc2ccccc2nc1O (stereo not given),> 100 µM (inactive),> 100 µM (inactive),15 µM,> 100 µM (inactive),> 100 µM (inactive),,> 100 µM (inactive),> 100 µM (inactive),> 100 µM (inactive),57.3 µM (inactive),> 100 µM (inactive),39.1 µM (inactive),42.2 µM (inactive),> 100 µM (inactive),47.1 µM (inactive),> 100 µM (inactive),> 100 µM (inactive),,,
Oc1cccc2c1NC1=C(CCC/C1=C\c1ccccc1)C2,> 100 µM (inactive),,43.4 µM,40.1 µM (inactive),> 100 µM (inactive),,> 100 µM (inactive),,> 10 µM (inactive),> 100 µM (inactive),> 100 µM (inactive),59.6 µM (inactive),33.5 µM (inactive),> 100 µM (inactive),66.7 µM (inactive),58.2 µM (inactive),37.3 µM (inactive),50.1 µM (inactive),,
CCCCCCCCCCCCc1ccsc1-c1ccc(-c2ccc(-c3sc(-c4cc(CCCCCCCCCCCC)c(-c5ccc(-c6ccc(-c7sccc7CCCCCCCCCCCC)s6)s5)s4)cc3CCCCCCCCCCCC)s2)s1,> 100 µM (inactive),> 100 µM (inactive),> 100 µM,19.3 µM (inactive),> 100 µM (inactive),> 100 µM (inactive),> 100 µM (inactive),> 100 µM (inactive),> 100 µM (inactive),> 100 µM (inactive),> 100 µM (inactive),> 100 µM (inactive),> 100 µM (inactive),> 100 µM (inactive),,> 100 µM (inactive),38.3 µM (inactive),22.8 µM (inactive),> 100 µM (inactive),> 100 µM (inactive)
